How the values were obtained:
TLR8 = target: T1, TLR8 (Homo sapiens, UniProt Q9NR97); test: TLR8 cell based assay (HEK-BLUE-hTLR8, SEAP reporter linked to NF-κB activation); conditions: HEK-BLUE-hTLR8 cells
T1 construct: host or cells: HEK293 (HEK-BLUE-hTLR8)
T1 sequence (Q9NR97 27-1041): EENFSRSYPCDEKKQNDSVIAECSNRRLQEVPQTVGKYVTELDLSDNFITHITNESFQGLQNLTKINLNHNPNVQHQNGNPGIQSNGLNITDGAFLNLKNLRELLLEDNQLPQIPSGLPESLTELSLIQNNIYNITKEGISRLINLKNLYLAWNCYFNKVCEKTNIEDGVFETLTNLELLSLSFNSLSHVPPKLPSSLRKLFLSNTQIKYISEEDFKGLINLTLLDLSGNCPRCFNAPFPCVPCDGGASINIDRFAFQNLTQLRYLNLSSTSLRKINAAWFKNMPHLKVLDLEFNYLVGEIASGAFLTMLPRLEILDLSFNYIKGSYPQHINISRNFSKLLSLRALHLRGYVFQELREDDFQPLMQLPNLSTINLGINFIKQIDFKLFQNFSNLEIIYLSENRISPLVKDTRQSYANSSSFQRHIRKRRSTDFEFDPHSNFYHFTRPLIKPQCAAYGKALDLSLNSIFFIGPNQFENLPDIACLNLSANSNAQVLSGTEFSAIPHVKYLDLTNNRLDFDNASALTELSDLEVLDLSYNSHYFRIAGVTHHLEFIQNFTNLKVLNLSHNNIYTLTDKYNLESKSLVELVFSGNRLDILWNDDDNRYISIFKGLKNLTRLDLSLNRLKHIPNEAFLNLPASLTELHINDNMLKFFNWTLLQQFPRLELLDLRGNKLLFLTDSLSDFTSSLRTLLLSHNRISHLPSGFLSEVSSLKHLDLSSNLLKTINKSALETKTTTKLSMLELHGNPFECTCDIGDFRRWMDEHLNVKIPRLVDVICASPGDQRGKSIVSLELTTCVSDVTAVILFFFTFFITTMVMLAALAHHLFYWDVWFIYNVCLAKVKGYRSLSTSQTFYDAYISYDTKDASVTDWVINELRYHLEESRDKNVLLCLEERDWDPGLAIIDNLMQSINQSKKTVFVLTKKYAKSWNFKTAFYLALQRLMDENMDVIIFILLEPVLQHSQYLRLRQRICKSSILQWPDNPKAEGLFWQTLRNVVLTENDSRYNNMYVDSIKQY
Method in brief: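 HEK-BLUE-hTLR8 cells (40,000/well) exposed 24 h at 37° C, 5% CO2 to compound, 10 points from 0.5 nM to 15 μM, 0.5% DMSO. Supernatant SEAP read with QUANTI-Blue (1.5 h, 37° C) at OD 650 nm; activation % normalized to DMSO and TLR8 agonist control, EC50 fitted.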

TLR7 = target: T2, TLR7 (Homo sapiens, UniProt Q9NYK1); test: TLR7 cell based assay (HEK-BLUE-hTLR7, SEAP reporter linked to NF-κB activation); conditions: HEK-BLUE-hTLR7 cells, 24 hours treatment, SEAP/QUANTI-Blue readout
T2 construct: host or cells: HEK293 (HEK-BLUE-hTLR7)
T2 sequence (Q9NYK1 27-1049): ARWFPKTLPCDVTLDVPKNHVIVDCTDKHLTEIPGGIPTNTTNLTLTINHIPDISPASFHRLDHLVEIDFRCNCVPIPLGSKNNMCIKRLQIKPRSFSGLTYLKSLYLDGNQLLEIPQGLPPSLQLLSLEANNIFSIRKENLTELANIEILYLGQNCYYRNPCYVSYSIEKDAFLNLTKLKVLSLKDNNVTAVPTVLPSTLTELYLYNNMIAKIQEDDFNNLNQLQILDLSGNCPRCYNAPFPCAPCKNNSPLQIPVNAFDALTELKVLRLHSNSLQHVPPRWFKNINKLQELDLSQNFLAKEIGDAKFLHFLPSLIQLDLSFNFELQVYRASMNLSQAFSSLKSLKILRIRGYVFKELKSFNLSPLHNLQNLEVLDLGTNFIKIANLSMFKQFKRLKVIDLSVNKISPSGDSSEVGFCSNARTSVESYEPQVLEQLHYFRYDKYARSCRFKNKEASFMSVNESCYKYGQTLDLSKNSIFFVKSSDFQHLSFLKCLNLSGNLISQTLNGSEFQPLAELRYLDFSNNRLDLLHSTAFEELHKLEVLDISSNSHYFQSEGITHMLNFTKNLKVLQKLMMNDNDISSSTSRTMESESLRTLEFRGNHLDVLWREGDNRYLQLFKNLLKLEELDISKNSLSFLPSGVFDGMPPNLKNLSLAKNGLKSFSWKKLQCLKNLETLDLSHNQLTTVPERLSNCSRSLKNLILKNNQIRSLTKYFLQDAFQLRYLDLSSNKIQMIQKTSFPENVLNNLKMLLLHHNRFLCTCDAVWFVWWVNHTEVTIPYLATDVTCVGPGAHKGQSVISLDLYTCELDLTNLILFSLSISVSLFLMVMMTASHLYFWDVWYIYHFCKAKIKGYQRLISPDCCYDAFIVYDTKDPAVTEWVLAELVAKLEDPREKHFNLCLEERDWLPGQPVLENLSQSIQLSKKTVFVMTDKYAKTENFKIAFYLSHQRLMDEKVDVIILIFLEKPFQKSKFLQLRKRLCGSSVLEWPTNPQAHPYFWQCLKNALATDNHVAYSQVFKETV
Protocol: In this assay, the bioactivity of compound of formula (I) was measured using a cell based assay. The assay was performed in human embryonic kidney cells (HEK293) expressing TLR7 or other TLR family members such as TLR4, and TLR9 (for selectivity screens). The activity of specific TLR agonists was assessed using the secretory embryonic alkaline phosphatase (SEAP) reporter gene that is linked to NF-κB activation in response to TLR stimulation. The SEAP activity was measured using the Quanti-Blue substrate (InvivoGen) after TLR agonist treatment.
The detailed experimental method is as follow:
HEK-BLUE-hTLR7 cell line was purchased from InvivoGen. The cells were cultured in Dulbecco's Modified Eagle's Media containing 4.5 g/L […] (Sigma-Aldrich) and 10% FBS. The cells were cultured at 37° C., 95% humidity and 5% CO2.
[…] A known TLR8 agonist was added as positive control and 1 μl of DMSO was added as negative control.
The cells were prepared as follows. The cells were removed from the incubator and growth medium was discarded. The cells were gently rinsed with pre-warmed 10 ml PBS for a T-150 flask. 12 ml pre-warmed growth medium was added, and the cells were detached by tapping the flask. Cell clumps were dissociated by gently pipetting up and down. The cells were counted. Single cell suspension was prepared at 200,000 cells per ml in growth medium and 200 μl of the cell suspension (40,000 cells per well) were immediately added to each well of the plate. The final DMSO concentration of each well was 0.5%.
The cells were cultured and treated with the compounds at 37° C., 5% CO2 for 24 hours.
20 μL of the supernatant of each well were added to 180 μL of QUANTI-Blue, and the plates were incubated at 37° C. for 1.5 hour. Optical density was measured using a spectrophotometer at 650 nm (OD data). Activivation was calculated by using the equation below: Activivation %=(Compound OD mean value−DMSO OD mean value)/(positive control OD mean value−DMSO OD mean value)×100
The data were analyzed using the GraphPad to get EC50 values and fitting dose response curves of the compounds.

[1] = 24 h treatment, SEAP/QUANTI-Blue readout

| SMILES | EC50 (TLR8; [1]) | EC50 (TLR7) | EC50 (TLR8; bound stated) |
| --- | --- | --- | --- |
| CCCN(CCC)C(=O)C1=Cc2c(C)cc(-c3ccc4c(=O)n(CCS(C)(=O)=O)ncc4c3)cc2N=C(N)C1 [Compound 2-2-2] | < 0.1 µM | 10 to 50 µM |  |
| CCCN(CCC)C(=O)C1=Cc2ccc(-c3ccc4c(=O)n(CC(N)=O)ncc4c3)cc2N=C(N)C1 [Compound 1-8-1] | < 0.1 µM | > 50 µM |  |
| CCCN(CCC)C(=O)C1=Cc2ccc(-c3ccc4c(=O)n(Cc5nccn5C)ccc4c3)cc2N=C(N)C1 [Compound 1-2-33] | < 0.1 µM | > 50 µM |  |
| CCCN(CCC)C(=O)C1=Cc2ccc(-c3ccc4c(=O)n(CC(C)(C)O)ncc4c3)cc2N=C(N)C1 [Compound 1-8-4] | < 0.1 µM | > 50 µM |  |
| CCCN(CCC)C(=O)C1=Cc2c(F)cc(-c3ccc4c(=O)n(CC(=O)N(C)C)ccc4c3)cc2N=C(N)C1 [Compound 1-10-9] | < 0.1 µM | 1 to 10 µM |  |
| CCCN(CCC)C(=O)C1=Cc2ccc(-c3ccc4c(=O)n(CCS(C)(=O)=O)ncc4c3)cc2N=C(N)C1 [Compound 1-8-5] | < 0.1 µM | > 50 µM | < 0.01 µM |
| CCCN(CCC)C(=O)C1=Cc2ccc(-c3ccc4c(=O)n(CC(C)(C)O)ccc4c3)cc2N=C(N)C1 [Compound 1-2-13] | < 0.1 µM | > 50 µM |  |
| CCCN(CCC)C(=O)C1=Cc2cc(F)c(-c3ccc4c(=O)n(CC(N)=O)ccc4c3)cc2N=C(N)C1 [Compound 1-11-1] | 1 to 10 µM | > 50 µM |  |
| CCCN(CCC)C(=O)C1=Cc2c(F)cc(-c3ccc4c(=O)n(CC(N)=O)ccc4c3)cc2N=C(N)C1 [Compound 1-10-1] | < 0.1 µM | > 50 µM |  |
| CCCN(CCC)C(=O)C1=Cc2ccc(-c3ccc4c(=O)n(Cc5ncco5)ncc4c3)cc2N=C(N)C1 [Compound 1-8-15] | < 0.1 µM | 10 to 50 µM |  |
| CCCN(CCC)C(=O)C1=Cc2ccc(-c3ccc4c(=O)n(CCOC)ccc4c3)cc2N=C(N)C1 [Compound 1-2-14] | < 0.1 µM | > 50 µM |  |
| CCCN(CCC)C(=O)C1=Cc2ccc(-c3ccc4c(=O)n(CCNS(C)(=O)=O)ccc4c3)cc2N=C(N)C1 [Compound 1-2-19] | < 0.1 µM | > 50 µM |  |
| CCCN(CCC)C(=O)C1=Cc2ccc(-c3ccc4c(=O)n(CCO)cnc4c3)cc2N=C(N)C1 [Compound 1-7-4] | < 0.1 µM | > 50 µM |  |
| CCCN(CCC)C(=O)C1=Cc2ccc(-c3ccc4c(=O)n(CCn5cccn5)ccc4c3)cc2N=C(N)C1 [Compound 1-2-32] | < 0.1 µM | 1 to 10 µM |  |
| CCCN(CCC)C(=O)C1=Cc2ccc(-c3ccc4c(=O)n(Cc5ncccn5)ccc4c3)cc2N=C(N)C1 [Compound 1-2-31] | < 0.1 µM | 10 to 50 µM | < 0.01 µM |

From patent US10669252B2, “Benzazepine derivative, preparation method, pharmaceutical composition and use thereof” (SHANGHAI DE NOVO PHARMATECH CO., LTD., priority 2016, dated 2020)
